Columns and labels:
Test in all cases: KINOMEscan competition binding
Settings in all cases: compound 10.0 µM
[1] = target: MAPKAPK2 (human) (UniProt P49137)
[2] = target: FES (human) (UniProt P07332)
[3] = target: MAPK15 (human) (UniProt Q8TD08)
[4] = target: MAP3K12 (human) (UniProt Q12852)
[5] = system: FLT3 (human), P36888 [ITD]
[6] = target: MAP3K1 (human) (UniProt Q13233)
[7] = target: KDR (human) (UniProt P35968)
[8] = target: HIPK4 (human) (UniProt Q8NE63)
[9] = target: MAP4K1 (human) (UniProt Q92918)
[10] = target: PRKD2 (human) (UniProt Q9BZL6)
[11] = target: MAP2K1 (human) (UniProt Q02750)
[12] = target: ROCK2 (human) (UniProt O75116)
[13] = target: RIOK2 (human) (UniProt Q9BVS4)
[14] = target: CDC2L2 (human) (UniProt Q9UQ88)
[15] = target: TYRO3 (human) (UniProt Q06418)
[16] = target: CDK11B (human) (UniProt P21127)
[17] = target: MAP3K5 (human) (UniProt Q99683)
[18] = target: TYK2 JH2 pseudokinase (human) (UniProt P29597)
[19] = target: ADCK3 (human) (UniProt Q8NI60)
[20] = target: NEK9 (human) (UniProt Q8TD19)
[21] = system: PIK3CA (human), P42336 [C420R]
[22] = target: EPHA6 (human) (UniProt Q9UF33)
[23] = target: TNK1 (human) (UniProt Q13470)
[24] = target: EIF2AK2 (human) (UniProt P19525)
[25] = target: ACVRL1 (human) (UniProt P37023)
[26] = target: PRKD1 (human) (UniProt Q15139)
Chain of PRKD1 (human) (Q15139 whole entry, looked up): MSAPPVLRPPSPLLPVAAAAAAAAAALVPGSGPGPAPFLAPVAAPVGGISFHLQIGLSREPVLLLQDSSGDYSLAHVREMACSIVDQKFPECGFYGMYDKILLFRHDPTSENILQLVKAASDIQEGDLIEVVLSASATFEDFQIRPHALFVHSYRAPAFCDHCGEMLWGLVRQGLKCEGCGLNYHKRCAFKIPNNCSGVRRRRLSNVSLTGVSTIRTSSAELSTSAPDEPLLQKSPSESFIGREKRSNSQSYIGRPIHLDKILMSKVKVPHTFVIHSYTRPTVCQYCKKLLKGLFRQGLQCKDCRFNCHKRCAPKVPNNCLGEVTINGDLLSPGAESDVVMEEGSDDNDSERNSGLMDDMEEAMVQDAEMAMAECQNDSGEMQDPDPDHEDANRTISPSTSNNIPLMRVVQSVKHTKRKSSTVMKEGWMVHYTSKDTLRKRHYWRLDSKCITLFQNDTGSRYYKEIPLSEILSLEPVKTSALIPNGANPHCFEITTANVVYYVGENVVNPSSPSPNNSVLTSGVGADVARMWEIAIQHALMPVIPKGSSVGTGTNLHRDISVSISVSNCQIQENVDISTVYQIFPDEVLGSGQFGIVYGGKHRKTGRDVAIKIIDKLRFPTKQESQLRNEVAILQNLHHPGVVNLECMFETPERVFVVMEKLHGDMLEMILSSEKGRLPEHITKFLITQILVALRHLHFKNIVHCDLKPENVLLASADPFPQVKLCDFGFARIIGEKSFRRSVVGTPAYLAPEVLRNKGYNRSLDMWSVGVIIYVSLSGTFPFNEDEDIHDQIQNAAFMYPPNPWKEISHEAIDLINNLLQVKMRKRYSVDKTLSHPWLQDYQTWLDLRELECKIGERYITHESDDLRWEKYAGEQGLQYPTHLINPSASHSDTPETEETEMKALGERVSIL

[27] = target: STK25 (human) (UniProt O00506)
[28] = target: PRKCH (human) (UniProt P24723)
[29] = target: BMPR1B (human) (UniProt O00238)
[30] = target: MAP3K9 (human) (UniProt P80192)
Chain of MAP3K9 (human) (P80192 whole entry, looked up): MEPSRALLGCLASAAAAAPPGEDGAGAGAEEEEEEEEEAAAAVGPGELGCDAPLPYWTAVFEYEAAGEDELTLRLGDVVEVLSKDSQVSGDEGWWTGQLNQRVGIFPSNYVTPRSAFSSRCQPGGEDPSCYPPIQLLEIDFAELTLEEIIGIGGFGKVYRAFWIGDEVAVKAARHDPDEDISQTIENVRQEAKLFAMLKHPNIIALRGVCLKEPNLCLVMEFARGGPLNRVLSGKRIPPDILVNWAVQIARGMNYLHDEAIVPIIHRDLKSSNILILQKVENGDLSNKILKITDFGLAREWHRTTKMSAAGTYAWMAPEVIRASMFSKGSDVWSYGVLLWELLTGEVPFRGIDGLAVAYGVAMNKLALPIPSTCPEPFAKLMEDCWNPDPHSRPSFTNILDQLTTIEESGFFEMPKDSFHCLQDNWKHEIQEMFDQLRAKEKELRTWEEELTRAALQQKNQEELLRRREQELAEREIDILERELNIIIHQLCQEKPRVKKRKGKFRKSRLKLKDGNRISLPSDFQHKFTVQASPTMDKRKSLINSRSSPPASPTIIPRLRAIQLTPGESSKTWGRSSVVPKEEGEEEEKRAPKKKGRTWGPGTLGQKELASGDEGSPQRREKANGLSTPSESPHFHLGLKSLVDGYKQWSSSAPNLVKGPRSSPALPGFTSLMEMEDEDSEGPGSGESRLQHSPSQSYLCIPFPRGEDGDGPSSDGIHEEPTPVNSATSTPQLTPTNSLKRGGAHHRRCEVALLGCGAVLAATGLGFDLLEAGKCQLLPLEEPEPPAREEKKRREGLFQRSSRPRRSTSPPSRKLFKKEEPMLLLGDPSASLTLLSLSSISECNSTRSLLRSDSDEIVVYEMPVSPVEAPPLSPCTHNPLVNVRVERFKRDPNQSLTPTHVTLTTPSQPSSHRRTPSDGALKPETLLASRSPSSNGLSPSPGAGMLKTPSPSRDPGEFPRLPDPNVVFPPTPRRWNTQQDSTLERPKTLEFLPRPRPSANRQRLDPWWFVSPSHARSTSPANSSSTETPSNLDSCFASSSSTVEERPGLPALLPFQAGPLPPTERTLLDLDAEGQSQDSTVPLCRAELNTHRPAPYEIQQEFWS

[31] = target: KIT (human) (UniProt P10721)
[32] = target: TAOK3 (human) (UniProt Q9H2K8)
Chain of TAOK3 (human) (Q9H2K8 whole entry, looked up): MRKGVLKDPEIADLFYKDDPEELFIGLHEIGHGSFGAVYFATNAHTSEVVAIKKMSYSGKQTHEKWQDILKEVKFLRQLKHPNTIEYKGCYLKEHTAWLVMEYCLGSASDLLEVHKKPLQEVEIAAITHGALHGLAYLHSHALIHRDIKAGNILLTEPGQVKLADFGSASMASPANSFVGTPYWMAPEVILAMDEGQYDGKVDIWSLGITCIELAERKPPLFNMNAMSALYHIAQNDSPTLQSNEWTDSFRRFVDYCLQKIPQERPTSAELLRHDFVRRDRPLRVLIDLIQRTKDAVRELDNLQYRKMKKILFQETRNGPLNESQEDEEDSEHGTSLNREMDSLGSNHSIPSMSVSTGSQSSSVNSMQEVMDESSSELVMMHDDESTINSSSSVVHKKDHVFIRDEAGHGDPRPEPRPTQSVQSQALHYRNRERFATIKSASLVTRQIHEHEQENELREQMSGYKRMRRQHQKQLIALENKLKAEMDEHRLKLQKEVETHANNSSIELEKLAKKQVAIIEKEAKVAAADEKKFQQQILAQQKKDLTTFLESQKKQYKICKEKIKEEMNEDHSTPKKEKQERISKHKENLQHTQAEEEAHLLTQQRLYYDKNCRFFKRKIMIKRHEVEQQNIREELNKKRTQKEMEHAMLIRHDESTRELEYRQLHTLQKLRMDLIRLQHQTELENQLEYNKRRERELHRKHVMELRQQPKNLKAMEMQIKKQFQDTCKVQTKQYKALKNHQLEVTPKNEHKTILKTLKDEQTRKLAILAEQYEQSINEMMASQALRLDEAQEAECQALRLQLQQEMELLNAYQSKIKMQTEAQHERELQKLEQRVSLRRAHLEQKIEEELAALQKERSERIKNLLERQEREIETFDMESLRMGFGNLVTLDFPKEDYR

[33] = target: STK4 (human) (UniProt Q13043)
[34] = target: BMX (human) (UniProt P51813)
[35] = target: AURKB (human) (UniProt Q96GD4)
[36] = target: CAMK1D (human) (UniProt Q8IU85)
[37] = target: TNNI3K (human) (UniProt Q59H18)
[38] = target: PTK2B (human) (UniProt Q14289)
[39] = target: LIMK1 (human) (UniProt P53667)
[40] = target: MAP4K3 (human) (UniProt Q8IVH8)
[41] = target: RPS6KA2 KD1 (human) (UniProt Q15349)

Chain of MAP3K1 (human) (Q13233 whole entry, looked up): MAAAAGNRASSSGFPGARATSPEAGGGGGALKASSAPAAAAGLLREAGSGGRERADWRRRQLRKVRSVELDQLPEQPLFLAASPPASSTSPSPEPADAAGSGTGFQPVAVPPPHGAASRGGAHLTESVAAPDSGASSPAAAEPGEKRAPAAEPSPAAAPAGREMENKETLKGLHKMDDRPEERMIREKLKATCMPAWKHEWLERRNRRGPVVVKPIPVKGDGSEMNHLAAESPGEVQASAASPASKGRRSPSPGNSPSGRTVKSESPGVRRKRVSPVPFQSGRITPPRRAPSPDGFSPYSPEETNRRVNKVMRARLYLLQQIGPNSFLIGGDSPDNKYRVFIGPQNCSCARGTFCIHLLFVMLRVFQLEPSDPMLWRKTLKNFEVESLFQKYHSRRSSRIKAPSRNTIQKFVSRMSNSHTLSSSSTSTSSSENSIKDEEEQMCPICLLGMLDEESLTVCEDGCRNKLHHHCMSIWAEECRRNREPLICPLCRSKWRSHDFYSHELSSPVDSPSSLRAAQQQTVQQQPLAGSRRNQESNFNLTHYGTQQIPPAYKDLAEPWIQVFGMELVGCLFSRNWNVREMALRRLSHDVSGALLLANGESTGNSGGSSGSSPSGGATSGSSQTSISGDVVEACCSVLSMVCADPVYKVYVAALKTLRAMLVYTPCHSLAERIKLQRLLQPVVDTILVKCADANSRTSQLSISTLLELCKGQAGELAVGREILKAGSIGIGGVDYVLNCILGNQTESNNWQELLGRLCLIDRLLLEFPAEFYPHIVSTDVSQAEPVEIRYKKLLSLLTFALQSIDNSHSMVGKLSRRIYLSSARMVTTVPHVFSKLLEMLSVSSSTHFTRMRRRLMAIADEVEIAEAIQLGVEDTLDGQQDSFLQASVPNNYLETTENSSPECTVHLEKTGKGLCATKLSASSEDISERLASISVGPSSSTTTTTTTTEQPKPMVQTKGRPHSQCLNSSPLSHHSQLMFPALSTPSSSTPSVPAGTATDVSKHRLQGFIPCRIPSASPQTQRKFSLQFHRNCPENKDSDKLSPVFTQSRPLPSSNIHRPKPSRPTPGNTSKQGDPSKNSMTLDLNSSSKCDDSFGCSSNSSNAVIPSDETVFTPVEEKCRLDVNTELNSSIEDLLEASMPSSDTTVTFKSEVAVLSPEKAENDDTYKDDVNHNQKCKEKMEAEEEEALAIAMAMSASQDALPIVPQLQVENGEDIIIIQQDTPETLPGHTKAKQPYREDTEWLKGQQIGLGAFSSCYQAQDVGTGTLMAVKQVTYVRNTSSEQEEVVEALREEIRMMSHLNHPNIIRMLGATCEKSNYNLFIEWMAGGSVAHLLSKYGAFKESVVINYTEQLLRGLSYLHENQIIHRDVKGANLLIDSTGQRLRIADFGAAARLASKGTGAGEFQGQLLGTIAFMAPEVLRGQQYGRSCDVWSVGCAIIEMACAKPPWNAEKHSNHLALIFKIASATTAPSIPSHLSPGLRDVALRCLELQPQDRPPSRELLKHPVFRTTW
Chain of MAPK15 (human) (Q8TD08 whole entry, looked up): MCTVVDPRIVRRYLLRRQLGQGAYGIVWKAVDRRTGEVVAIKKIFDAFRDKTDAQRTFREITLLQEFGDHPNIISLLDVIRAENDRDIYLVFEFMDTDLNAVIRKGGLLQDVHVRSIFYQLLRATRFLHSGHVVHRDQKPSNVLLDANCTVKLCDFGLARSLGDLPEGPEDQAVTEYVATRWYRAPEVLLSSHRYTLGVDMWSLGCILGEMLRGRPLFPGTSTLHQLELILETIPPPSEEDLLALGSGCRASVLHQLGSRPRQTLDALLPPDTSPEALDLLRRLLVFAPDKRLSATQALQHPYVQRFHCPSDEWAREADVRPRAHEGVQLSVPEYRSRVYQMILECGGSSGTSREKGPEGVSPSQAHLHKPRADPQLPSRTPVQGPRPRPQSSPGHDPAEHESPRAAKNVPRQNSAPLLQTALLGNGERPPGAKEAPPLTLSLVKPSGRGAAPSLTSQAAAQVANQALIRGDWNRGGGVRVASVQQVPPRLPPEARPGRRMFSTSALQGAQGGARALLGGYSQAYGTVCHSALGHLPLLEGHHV

What does the source list for `O=C1Nc2cc(Br)ccc2/C1=C1/Nc2ccccc2/C1=N\O`?
kinase still bound, per cent of control [1]: 100%; kinase still bound, per cent of control [2]: 100%; kinase still bound, per cent of control [3]: 29%; kinase still bound, per cent of control [4]: 19%; kinase still bound, per cent of control [5]: 0.15%; kinase still bound, per cent of control [6]: 100%; kinase still bound, per cent of control [7]: 0.9%; kinase still bound, per cent of control [8]: 3%; kinase still bound, per cent of control [9]: 18%; kinase still bound, per cent of control [10]: 100%; kinase still bound, per cent of control [11]: 37%; kinase still bound, per cent of control [12]: 93%; kinase still bound, per cent of control [13]: 18%; kinase still bound, per cent of control [14]: 100%; kinase still bound, per cent of control [15]: 91%; kinase still bound, per cent of control [16]: 100%; kinase still bound, per cent of control [17]: 100%; kinase still bound, per cent of control [18]: 28%; kinase still bound, per cent of control [19]: 80%; kinase still bound, per cent of control [20]: 98%; kinase still bound, per cent of control [21]: 100%; kinase still bound, per cent of control [22]: 34%; kinase still bound, per cent of control [23]: 16%; kinase still bound, per cent of control [24]: 33%; kinase still bound, per cent of control [25]: 100%; kinase still bound, per cent of control [26]: 100%; kinase still bound, per cent of control [27]: 18%; kinase still bound, per cent of control [28]: 100%; kinase still bound, per cent of control [29]: 50%; kinase still bound, per cent of control [30]: 3.4%; kinase still bound, per cent of control [31]: 0.05%; kinase still bound, per cent of control [32]: 71%; kinase still bound, per cent of control [33]: 6.5%; kinase still bound, per cent of control [34]: 42%; kinase still bound, per cent of control [35]: 2.8%; kinase still bound, per cent of control [36]: 45%; kinase still bound, per cent of control [37]: 68%; kinase still bound, per cent of control [38]: 9.3%; kinase still bound, per cent of control [39]: 59%; kinase still bound, per cent of control [40]: 24%; kinase still bound, per cent of control [41]: 2.2%

Reference: the kinase profiling compilation of Christmann-Franck et al. (2016)
